A short description of data set [1]: SUPPLEMENTARY: PAMPA permeability assay. Format: physicochemical. The note with it: read-out: Permeability. Background: In PAMPA a lipid-coated filter parts donor from acceptor wells.
The target in data set [2] is T1, Carnitine O-palmitoyltransferase 1, liver isoform (Rattus norvegicus, UniProt P32198).
T1 sequence (P32198 whole entry): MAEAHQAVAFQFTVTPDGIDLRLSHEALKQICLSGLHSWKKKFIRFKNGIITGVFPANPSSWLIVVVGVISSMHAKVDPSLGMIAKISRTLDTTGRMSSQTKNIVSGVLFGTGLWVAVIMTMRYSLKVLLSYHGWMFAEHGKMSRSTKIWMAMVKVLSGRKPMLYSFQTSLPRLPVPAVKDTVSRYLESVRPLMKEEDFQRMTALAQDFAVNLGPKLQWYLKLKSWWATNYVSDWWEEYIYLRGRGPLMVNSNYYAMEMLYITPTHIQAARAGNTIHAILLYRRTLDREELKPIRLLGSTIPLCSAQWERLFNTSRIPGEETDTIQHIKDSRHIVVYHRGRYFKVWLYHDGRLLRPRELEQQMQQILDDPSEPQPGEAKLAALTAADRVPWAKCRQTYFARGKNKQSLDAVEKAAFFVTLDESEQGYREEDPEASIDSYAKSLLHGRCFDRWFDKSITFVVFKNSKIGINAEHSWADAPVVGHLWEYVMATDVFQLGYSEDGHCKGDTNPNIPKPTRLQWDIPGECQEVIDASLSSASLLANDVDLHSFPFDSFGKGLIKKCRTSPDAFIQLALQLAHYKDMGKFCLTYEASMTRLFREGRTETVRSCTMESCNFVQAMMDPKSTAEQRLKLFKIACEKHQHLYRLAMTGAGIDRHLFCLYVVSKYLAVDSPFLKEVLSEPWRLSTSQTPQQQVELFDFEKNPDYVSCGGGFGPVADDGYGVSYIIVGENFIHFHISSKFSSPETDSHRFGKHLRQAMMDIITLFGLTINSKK
The experiment in a line: (§1) SUPPLEMENTARY: Inhibition of Carnitine palmitoyltransferase 1, liver isoform.

The target in data set [3] is T2, Carnitine O-palmitoyltransferase 2, mitochondrial (Rattus norvegicus, UniProt P18886).
T2 sequence (P18886 whole entry): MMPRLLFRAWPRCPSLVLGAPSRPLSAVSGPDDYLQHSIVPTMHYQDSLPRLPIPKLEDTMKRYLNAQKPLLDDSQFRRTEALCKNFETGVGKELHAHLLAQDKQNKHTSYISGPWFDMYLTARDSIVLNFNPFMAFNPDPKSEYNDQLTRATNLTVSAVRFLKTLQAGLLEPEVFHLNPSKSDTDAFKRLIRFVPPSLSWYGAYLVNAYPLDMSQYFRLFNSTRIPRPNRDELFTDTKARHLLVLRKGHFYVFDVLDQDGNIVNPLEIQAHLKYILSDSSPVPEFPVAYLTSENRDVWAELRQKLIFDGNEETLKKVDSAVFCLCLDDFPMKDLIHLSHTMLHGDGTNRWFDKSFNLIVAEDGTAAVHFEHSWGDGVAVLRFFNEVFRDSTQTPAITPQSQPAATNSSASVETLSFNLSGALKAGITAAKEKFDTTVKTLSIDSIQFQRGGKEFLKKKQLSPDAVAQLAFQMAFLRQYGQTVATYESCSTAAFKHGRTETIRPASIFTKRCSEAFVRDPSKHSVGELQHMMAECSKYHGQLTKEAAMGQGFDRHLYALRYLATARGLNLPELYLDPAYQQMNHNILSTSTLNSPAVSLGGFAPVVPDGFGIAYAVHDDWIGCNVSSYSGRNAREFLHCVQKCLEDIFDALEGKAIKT
The experiment in a line: (§2) SUPPLEMENTARY: Inhibition of Carnitine palmitoyltransferase 2.

Data set [4] in a line: SUPPLEMENTARY: Lyophilisation Solubility Assay (LYSA). Format: physicochemical. The note with it: read-out: Kinetic_solubility.
Data set [5] has as its target T3, Carnitine O-palmitoyltransferase 1, muscle isoform (Homo sapiens, UniProt Q92523).
T3 sequence (Q92523 whole entry): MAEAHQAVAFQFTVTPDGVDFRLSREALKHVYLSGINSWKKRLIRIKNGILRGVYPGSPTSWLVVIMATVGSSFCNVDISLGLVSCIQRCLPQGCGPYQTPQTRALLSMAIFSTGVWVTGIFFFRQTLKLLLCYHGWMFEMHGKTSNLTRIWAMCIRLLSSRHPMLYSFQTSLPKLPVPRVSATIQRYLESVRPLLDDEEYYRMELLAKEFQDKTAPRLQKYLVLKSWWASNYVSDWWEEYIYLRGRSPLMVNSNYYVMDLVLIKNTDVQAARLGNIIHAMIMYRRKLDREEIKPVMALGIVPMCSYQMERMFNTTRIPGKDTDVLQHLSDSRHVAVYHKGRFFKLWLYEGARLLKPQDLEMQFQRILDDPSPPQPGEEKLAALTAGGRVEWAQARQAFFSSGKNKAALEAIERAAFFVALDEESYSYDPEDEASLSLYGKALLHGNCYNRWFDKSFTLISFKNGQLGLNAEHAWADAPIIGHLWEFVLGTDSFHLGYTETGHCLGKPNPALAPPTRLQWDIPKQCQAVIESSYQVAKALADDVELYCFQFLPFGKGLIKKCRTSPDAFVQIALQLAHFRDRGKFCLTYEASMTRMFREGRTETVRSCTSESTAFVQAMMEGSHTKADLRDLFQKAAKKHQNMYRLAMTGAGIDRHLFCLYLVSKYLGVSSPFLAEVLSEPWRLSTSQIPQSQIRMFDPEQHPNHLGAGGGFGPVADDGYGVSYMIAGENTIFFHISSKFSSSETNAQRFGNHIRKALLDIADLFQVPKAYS
Briefly: SUPPLEMENTARY: Inhibition of Carnitine palmitoyltransferase 1, muscle isoform. Also on record: species or system Muscle tissue.

The target of data set [6] is T4, Carnitine O-palmitoyltransferase 1, liver isoform (Homo sapiens, UniProt P50416).
T4 sequence (P50416 whole entry): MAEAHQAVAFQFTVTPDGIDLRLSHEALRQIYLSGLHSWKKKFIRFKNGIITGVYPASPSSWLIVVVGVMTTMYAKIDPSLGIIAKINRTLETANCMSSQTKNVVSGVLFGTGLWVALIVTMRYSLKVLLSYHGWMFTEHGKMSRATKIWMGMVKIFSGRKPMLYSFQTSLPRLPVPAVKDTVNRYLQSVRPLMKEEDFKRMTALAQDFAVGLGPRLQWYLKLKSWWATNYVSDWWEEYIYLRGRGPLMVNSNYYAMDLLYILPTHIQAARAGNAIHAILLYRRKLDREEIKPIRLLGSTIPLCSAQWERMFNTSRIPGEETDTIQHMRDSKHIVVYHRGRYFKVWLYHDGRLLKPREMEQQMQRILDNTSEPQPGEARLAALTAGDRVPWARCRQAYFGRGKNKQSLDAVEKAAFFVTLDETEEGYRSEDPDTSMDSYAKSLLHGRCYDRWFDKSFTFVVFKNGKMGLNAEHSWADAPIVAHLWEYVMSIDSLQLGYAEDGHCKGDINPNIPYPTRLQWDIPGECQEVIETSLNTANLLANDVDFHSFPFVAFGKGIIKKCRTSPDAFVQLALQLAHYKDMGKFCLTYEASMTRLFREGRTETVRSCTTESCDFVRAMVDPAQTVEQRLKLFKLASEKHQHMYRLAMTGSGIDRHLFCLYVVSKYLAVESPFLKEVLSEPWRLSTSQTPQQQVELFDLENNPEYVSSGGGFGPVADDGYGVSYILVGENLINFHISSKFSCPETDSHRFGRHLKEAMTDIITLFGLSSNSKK
The description is as §1.

Data set [7] deals with T5, Carnitine O-palmitoyltransferase 2, mitochondrial (Homo sapiens, UniProt P23786).
T5 sequence (P23786 whole entry): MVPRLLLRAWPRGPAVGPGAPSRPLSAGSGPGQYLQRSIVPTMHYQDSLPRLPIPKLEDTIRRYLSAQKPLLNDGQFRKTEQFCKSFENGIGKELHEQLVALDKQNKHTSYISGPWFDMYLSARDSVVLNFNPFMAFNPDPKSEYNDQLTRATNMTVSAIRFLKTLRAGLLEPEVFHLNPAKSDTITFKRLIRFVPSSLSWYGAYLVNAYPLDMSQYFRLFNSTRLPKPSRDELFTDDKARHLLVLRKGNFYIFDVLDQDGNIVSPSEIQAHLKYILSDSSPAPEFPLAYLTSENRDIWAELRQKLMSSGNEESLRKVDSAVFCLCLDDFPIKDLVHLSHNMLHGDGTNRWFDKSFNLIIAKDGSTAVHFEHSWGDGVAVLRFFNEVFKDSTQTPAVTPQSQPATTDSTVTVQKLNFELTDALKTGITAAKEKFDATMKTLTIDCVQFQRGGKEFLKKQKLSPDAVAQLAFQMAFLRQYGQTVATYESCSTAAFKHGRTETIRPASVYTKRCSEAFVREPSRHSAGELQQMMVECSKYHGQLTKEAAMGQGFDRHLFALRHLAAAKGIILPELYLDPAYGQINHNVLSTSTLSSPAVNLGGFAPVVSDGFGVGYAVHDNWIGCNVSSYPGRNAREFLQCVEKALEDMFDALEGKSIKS
Described as §2.

≈ marks a conversion by molar mass, not a printed value.

As a reminder, the IC50 is the concentration at which inhibition is half-maximal. Read a low IC50 as higher potency.

For the compound `COc1ccc(Cl)cc1S(=O)(=O)N1CCc2ccc(C(=O)Nc3ccc(C(=O)O)cc3)cc21`, the Papp in data set [1] came out at 2.78 ×10⁻⁶ cm/s. For the same compound, the results for the half-maximal inhibitory concentration (IC50) in data set [2], in data set [3] and in data set [5] were 0.055 µM, 7.82 µM and greater than 100 µM, respectively. Further, the solubility kinetic in data set [4] turned out to be 5 µg/mL (≈ 10.3 µM).
Take `COc1ccc(Cl)cc1S(=O)(=O)N1CCSc2ccc(C(=O)Nc3ccc(C(=O)O)cc3)cc21`: the concentration for half-maximal inhibition (IC50) in data set [2] was 0.0569 µM; in data set [6], 0.0654 µM; in data set [3], greater than 100 µM; in data set [7] it was greater than 100 µM; in data set [5], greater than 100 µM. Further, the solubility kinetic in data set [4] came to 4 µg/mL (≈ 7.71 µM).
Regarding `O=C(COc1ccccc1)N1CCCC[C@@H]1c1noc(C2C[C@@H]3CC[C@H]2C3)n1` (stereo partly drawn), the IC50 in data set [2] is 0.31 µM; in data set [6] it was 0.0326 µM; in data set [3] it was greater than 100 µM; in data set [7], 19.9 µM; in data set [5], greater than 100 µM. In data set [4], the solubility kinetic was less than 1 µg/mL.
Turning to `COc1ccc(Cl)cc1S(=O)(=O)N1CCCc2ccc(C(=O)Nc3ccc(C(=O)O)cc3)cc21`, in data set [1], the Papp was determined as 3.2 ×10⁻⁶ cm/s. Besides, the IC50 in data set [2] stood at 0.0323 µM; in data set [6] it was 0.0267 µM; in data set [3], 2.85 µM; in data set [7], 2.13 µM; in data set [5], 5.93 µM. The solubility kinetic in data set [4] was 8 µg/mL (≈ 16 µM).
Turning to `COc1ccc(Cl)cc1S(=O)(=O)N1CCOc2ccc(C(=O)Nc3ccc(C(=O)O)cc3)cc21`, the Papp in data set [1] came out at 2.7 ×10⁻⁶ cm/s. The IC50 in data set [2] worked out at 0.0354 µM; in data set [6] it was 0.0401 µM; in data set [3], 36.6 µM; in data set [7] it was 26.7 µM; in data set [5] it was 14.8 µM. Moreover, in data set [4], the solubility kinetic worked out at 8 µg/mL (≈ 15.9 µM).
With `O=C(Nc1ccc(C(=O)O)c(F)c1)c1ccc2c(c1)N(S(=O)(=O)c1cc(Cl)cc(Cl)c1)CCC2`, the Papp in data set [1] amounted to 4.82 ×10⁻⁶ cm/s. The IC50 in data set [2] is 0.0534 µM; in data set [6], 0.111 µM; in data set [3], greater than 100 µM; in data set [7] it was greater than 100 µM; in data set [5] it was 19.6 µM. Also, the solubility kinetic in data set [4] is 7 µg/mL (≈ 13.4 µM).
With `O=C(Nc1ccc(C(=O)O)c(F)c1)c1ccc2c(c1)N(S(=O)(=O)c1cccc(C(F)(F)F)c1)CCC2`, the Papp in data set [1] amounted to 2.13 ×10⁻⁶ cm/s. In addition, the IC50 came to 0.0748 µM in data set [2]; 0.126 µM in data set [6]; 6.45 µM in data set [3]; 2.23 µM in data set [7]; 9 µM in data set [5]. In data set [4], the solubility kinetic was determined as 10 µg/mL (≈ 19.1 µM).
Consider `O=C(COc1ccccc1)N1CCCCC1c1ncc(-c2cccc([N+](=O)[O-])c2)o1` (stereo not drawn), for which, in data set [1], the Papp was found to be 0.66 ×10⁻⁶ cm/s. The half-maximal inhibitory concentration (IC50) in data set [2] was 0.237 µM; in data set [6] it was 0.243 µM; in data set [7], 12.8 µM; in data set [5] it was greater than 100 µM. In data set [4], the solubility kinetic came out at 4 µg/mL (≈ 9.82 µM).
Consider `O=C(COc1ccccc1)N1CCCC[C@@H]1c1nc(-c2cccc([N+](=O)[O-])n2)no1`, for which, in data set [1], the Papp worked out at 5.48 ×10⁻⁶ cm/s. Besides, the IC50 is 0.76 µM in data set [2], 0.254 µM in data set [6], 17.2 µM in data set [7] and greater than 100 µM in data set [5]. The solubility kinetic in data set [4] turned out to be 10 µg/mL (≈ 24.4 µM).
For the compound `O=C([O-])c1cccc(-c2csc([C@H]3CCCCN3C(=O)COc3ccccc3)n2)c1.[Na+]`, the Papp in data set [1] is 3.55 ×10⁻⁶ cm/s. Besides, the half-maximal inhibitory concentration (IC50) in data set [2] turned out to be 0.0964 µM; in data set [6] it was 0.0197 µM; in data set [3], 49.6 µM; in data set [7], 28.7 µM. Also, in data set [4], the solubility kinetic was greater than 525 µg/mL.
As to `Cc1cc(C)cc(S(=O)(=O)c2n[nH]c3ccc(C(=O)Nc4ccccc4)cc23)c1`, the IC50 in data set [6] was 0.221 µM; in data set [3] it was greater than 100 µM; in data set [7], greater than 100 µM; in data set [5], greater than 100 µM. For the same compound, the solubility kinetic in data set [4] was less than 1 µg/mL.
Regarding `COc1ccc(Cl)cc1S(=O)(=O)N(CCC(=O)O)c1cc(C(=O)Nc2ccccc2)cc2c1OCO2`, the IC50 was 1.72 µM in data set [2]; 0.175 µM in data set [6]; greater than 100 µM in data set [3]; greater than 100 µM in data set [7]; 2.81 µM in data set [5].
With `COc1ccc(Cl)cc1S(=O)(=O)N1CCOc2c(C(F)F)cc(C(=O)Nc3ccc(C(=O)O)cc3)cc21`, the 50% inhibitory concentration (IC50) in data set [2] was 2.91 µM; in data set [6], 0.325 µM; in data set [3] it was 16 µM; in data set [7], 1.44 µM; in data set [5] it was greater than 100 µM.
